Laboratory results as given in US20110217293A1, “Uses of morelloflavone” (priority 2008, published 2011).

Experiments:
[1] = Body weight in carotid artery injury study; format: in vivo, mouse; settings: apoE−/− mice
Experimental: The carotid artery injury assay was performed as described by Kuhel (16). Male apoE−/− mice were obtained from Jackson Laboratory (Bar Harbor, Me.) and maintained on a 12 hour light/dark cycle. All animal experimentation protocols were performed under institutional guidelines of animal welfare, in accordance with NIH guidelines. Mice were fed either normal rodent chow diet (5001, LabDiet) (n=10) or normal chow diet containing 0.15% morelloflavone (w/w) (n=9). This diet corresponded to 200 mg/kg morelloflavone if a 30 gm mouse consumes 4 grams of chow. Mice were placed on these diets for 7 days before they underwent carotid artery denudation by the insertion of an epoxy resin (Epon) probe as described (16).

sPLA2-IIA = target: T1, sPLA2-IIA (Homo sapiens, UniProt P14555); assay: sPLA2 enzyme activity assay, Group IIA; format: biochemical; settings: recombinant human sPLA2-IIA, data not shown
T1 sequence (P14555 21-144): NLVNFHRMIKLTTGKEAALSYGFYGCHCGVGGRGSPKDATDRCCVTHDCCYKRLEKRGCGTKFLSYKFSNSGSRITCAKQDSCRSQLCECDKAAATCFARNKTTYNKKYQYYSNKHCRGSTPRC
Experimental: Recombinant human sPLA2 isoforms, Group IB, Group IIA, Group V, and Lp-PLA2 were obtained from R&D Systems and Cayman Chemical Co. sPLA2 enzyme activities in the presence of various concentrations of morelloflavone or other inhibitors were determined using a commercially available assay system according to the manufacturer's instructions (Cayman Chemical Co.). Thioetheramide-1-palmitylthio-2-palmitoylamido-1,2-dideoxy-sn-glycero-3-phosphorylcholine (T-PC) and methyl arachidonyl fluorophosphonate (MAFP) were used as inhibitors of sPLA2 (IB, IIA, and V) and Lp-PLA2, respectively, per manufacturers' instructions.

O=C1c2c(O)cc(O)cc2O[C@H](c2ccc(O)cc2)[C@H]1c1c(O)cc(O)c2c(=O)cc(-c3ccc(O)c(O)c3)oc12 [morelloflavone, 5,7, 4′, 5″, 7″, 3″, 4″-heptahydroxy-[3,8″]-flavonylflavanone]
Body weight ([1]; at the time of sacrifice): 23.3 ± 1.5 g
Body weight ([1]; before injury): 24.0 ± 2.0 g
IC50 (sPLA2-IIA): > 10 µM
